Source: patent publication US9061984B2 (University of Louisville Research Foundation, Inc., priority 2008, dated 2015)
Values after ≈ are worked out from the molar mass of the structure shown. Values joined by “and” are separate entries in the source; they are usually repeats but may differ in a detail not shown here. Equal entries are not always repeated.

Tested on: L. braziliensis PER006
Assay: Activity against macrophages infected with Leishmania amastigotes
Conditions: Leishmania braziliensis, Macrophage, 48 h, read-out: IC50 L. braziliensis PER006
Description: (§2) A cloned line of Leishmania amazonensis(strain MHOM/BR/76/LTB-012) was used in all experiments. Axenically grown amastigote forms of L. amazonensis were maintained by weekly subpassages in MAA/20 medium (Sereno and Lemesre, Antimicrobial Agents and Chemotherapy 41, 972-976 (1997)) at 32±1° C. in 25 cm^2 tissue culture flasks. L. peruviana (strain MHOM/PE/LCA08) and L. braziliensis (strainMHOM/PE/PER006) were maintained in the promastigote stage in a biphasic medium (blood agar with 0.89% NaCl, pH 7.4) at 24° C., with sub-passage every 3 to 4 days. Promastigotes (5×10^6 parasites) were then transferred to 25 cm2 tissue culture flasks containing 5 ml of M199 medium supplemented with 10% foetal bovine serum (FBS), pH 7.4. After 4 days, exponential phase promastigotes were centrifuged for 10 minutes at 1500 g and 4° C. The supernatant was discarded and replaced by fresh M199 medium supplemented with 20% FBS, pH 5.5. Axenic amastigotes transformation was then induced by increasing the temperature to 34° C. and incubating for 96 h (Teixeira et al., Parasitology Research 88, 963-968 (2002)).
(§3) Extracted cells were immediately deposited on sterile 4×4 mm cover glasses and placed in each well of a 96-well plate. Plates were incubated for 24 h at 37° C., 5% CO2 to allow cell adhesion (Castillo et al, Journal of Ethnopharmacology 112, 410-414 (2007)). Pre-warmed complete M199 medium was used twice to remove non-adherent cells. A neutral red method (Fautz et al., Mutation Research 253, 173-179 (1991)) was employed to determine cell concentration. Approximately 7×10^4 viable cells were deposited in each well for adhesion.
(§4) Infection of macrophages by amastigotes was determined as follows. […] Twelve hours after infection, a solution of the compounds to be tested was added to the cultures at various concentrations and maintained at 37° C. in 5% CO2 for a further forty-eight hours more. The plates were fixed with methanol and stained with 10% Giemsa stain. The percentage of infected macrophages was determined microscopically at 100 times magnification. The number of intracellular amastigotes was determined in 300 cells. Following Delorenzi et al. Antimicrobial Agents and Chemotherapy, 45, 1349-1354 (2001)) the percentage of infection rate (% IR) of each culture was calculated as follows: % IR=100−(infection rate of the treated culture/infection rate of the untreated culture)×100.
(§5) All experiments were performed in triplicate. ANOVA was used to test for statistical significance of differences (Epi-Info, Statview student program). The total parasite burden was calculated as a mean number of amastigotes per cells multiplied by the number of infected macrophages.

Structure (SMILES)	IC50 [µM]
COc1cc(O)cc(O)c1C(=O)/C=C/c1ccc2c(c1)OCO2 [Compound I-06, (2E)-3-(1,3-Benzodioxol-5-yl)-1-(2,4-dihydroxy-6-methoxyphenyl)-2-propen-1-one]	8.6

Tested on: axenic amastigotes of L. amazonensis (strain MHOM/BR/76/LTB-012)
Assay: not given
Conditions: Table 8b

Structure (SMILES)	Selectivity Index
C/C(=N/Nc1ncnc2sc3c(c12)CCCC3)c1ccccc1 [II-47]	5.6

Tested on: L. peruviana LCA08
Assay: Activity against macrophages infected with Leishmania amastigotes
Conditions: Leishmania peruviana, Macrophage, 48 h, read-out: IC50 L. peruviana LCA08
Description: as §2, §3, §4, §5

Structure (SMILES)	IC50 [µM]
COc1cc(O)cc(O)c1C(=O)/C=C/c1ccc2c(c1)OCO2 [Compound I-06, (2E)-3-(1,3-Benzodioxol-5-yl)-1-(2,4-dihydroxy-6-methoxyphenyl)-2-propen-1-one]	19.7

Tested on: not listed separately
Assay: Toxicity to peritoneal macrophages (Trypan Blue count)
Assay type: cell-based, BALB/C mouse
Conditions: BALB/C, mouse, Cytotoxicity Macrophages IC50

Structure (SMILES)	IC50 at 48 h [µM]
C/C(=N/Nc1ncnc2sc3c(c12)CCCC3)c1ccccc1 [II-47]	51.3

Tested on: peritoneal macrophages
Assay: as above
Assay type: cell-based, BALB/C mouse
Conditions: Mus musculus, Peritoneal macrophage, 48 h; Table 7; read-out: IC50 Macrophage

Structure (SMILES)	IC50 [µM]
COc1cc(O)cc(O)c1C(=O)/C=C/c1ccc2c(c1)OCO2 [Compound I-06, (2E)-3-(1,3-Benzodioxol-5-yl)-1-(2,4-dihydroxy-6-methoxyphenyl)-2-propen-1-one]	157

Tested on: VERO cells
Assay: Cytotoxicity on VERO cells (MTT), anti-T. cruzi study
Conditions: Chlorocebus sabaeus, Vero, read-out: IC50 VERO, Table 3

Structure (SMILES)	IC50 [µM]
COc1cc(O)cc(O)c1C(=O)/C=C/c1ccc2c(c1)OCO2 [Compound I-06, (2E)-3-(1,3-Benzodioxol-5-yl)-1-(2,4-dihydroxy-6-methoxyphenyl)-2-propen-1-one]	25.5

Tested on: not listed separately
Assay: as above
Conditions: African green monkey, VERO cells, Cytotoxicity VERO Lab B, Lab B

Structure (SMILES)	IC50 [µg/mL]
C/C(=N/Nc1ncnc2sc3c(c12)CCCC3)c1ccccc1 [II-47]	4 (≈ 12.4 µM)

Same assay, conditions: African green monkey, VERO cells, IC50 - VERO Cytotoxicity, Table 2

Structure (SMILES)	IC50 [µg/mL]
COc1cc(O)cc(O)c1C(=O)/C=C/c1ccc2c(c1)OCO2 [Compound I-06, (2E)-3-(1,3-Benzodioxol-5-yl)-1-(2,4-dihydroxy-6-methoxyphenyl)-2-propen-1-one]	8 (≈ 25.5 µM)

Tested on: non-replicating persistence Mycobacterium tuberculosis (NRP-TB)
Assay: Low oxygen recovery assay (LORA)
Assay type: cell-based
Conditions: Mycobacterium tuberculosis; anaerobic 10 days, 28 hour recovery; value in brackets

Structure (SMILES)	MIC [µg/mL]
C/C(=N/Nc1ncnc2sc3c(c12)CCCC3)c1ccccc1 [II-47]	2.8 (≈ 8.68 µM)

Same assay, conditions: VERO vs LORA MIC; value in brackets

Structure (SMILES)	Selectivity Index LORA
C/C(=N/Nc1ncnc2sc3c(c12)CCCC3)c1ccccc1 [II-47]	11.5

Tested on: HT-29 cells
Assay: Cell growth inhibition bioassay (sulforhodamine B)
Assay type: cell-based, human
Conditions: Homo sapiens, HT-29; 48 h, SRB; read-out: GI50 in indicated cell line: HT-29
Procedure, shortened: (§1)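 Cells were exposed to compound alongside matched solvent controls, then stained with sulforhodamine B. Percent growth inhibition was calculated from dye absorbance against the control.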

Structure (SMILES)	GI50
COc1cc(O)cc(O)c1C(=O)/C=C/c1ccc2c(c1)OCO2 [Compound I-06, (2E)-3-(1,3-Benzodioxol-5-yl)-1-(2,4-dihydroxy-6-methoxyphenyl)-2-propen-1-one]	20.7 µM
C/C(=N/Nc1ncnc2sc3c(c12)CCCC3)c1ccccc1 [II-47]	7.1 µg/mL

Tested on: M-14 cells
Assay: Cell growth inhibition bioassay (sulforhodamine B)
Assay type: cell-based, human
Conditions: Homo sapiens, M14; 48 h, SRB; read-out: GI50 in indicated cell line: M-14
Procedure, shortened: as §1

Structure (SMILES)	GI50
COc1cc(O)cc(O)c1C(=O)/C=C/c1ccc2c(c1)OCO2 [Compound I-06, (2E)-3-(1,3-Benzodioxol-5-yl)-1-(2,4-dihydroxy-6-methoxyphenyl)-2-propen-1-one]	22.6 µM
C/C(=N/Nc1ncnc2sc3c(c12)CCCC3)c1ccccc1 [II-47]	6.4 µg/mL

Tested on: MCF-7 cells
Assay: Cell growth inhibition bioassay (sulforhodamine B)
Assay type: cell-based, human
Conditions: Homo sapiens, MCF7; 48 h, SRB; read-out: GI50 in indicated cell line: MCF-7
Procedure, shortened: as §1

Structure (SMILES)	GI50
COc1cc(O)cc(O)c1C(=O)/C=C/c1ccc2c(c1)OCO2 [Compound I-06, (2E)-3-(1,3-Benzodioxol-5-yl)-1-(2,4-dihydroxy-6-methoxyphenyl)-2-propen-1-one]	20.4 µM
C/C(=N/Nc1ncnc2sc3c(c12)CCCC3)c1ccccc1 [II-47]	5.3 µg/mL

Tested on: K562 cells
Assay: Cell growth inhibition bioassay (sulforhodamine B)
Assay type: cell-based, human
Conditions: Homo sapiens, K562; 48 h, SRB; read-out: GI50 in indicated cell line: K562
Procedure, shortened: as §1

Structure (SMILES)	GI50
COc1cc(O)cc(O)c1C(=O)/C=C/c1ccc2c(c1)OCO2 [Compound I-06, (2E)-3-(1,3-Benzodioxol-5-yl)-1-(2,4-dihydroxy-6-methoxyphenyl)-2-propen-1-one]	16.2 µM
C/C(=N/Nc1ncnc2sc3c(c12)CCCC3)c1ccccc1 [II-47]	3.5 µg/mL

Tested on: H460 cells
Assay: Cell growth inhibition bioassay (sulforhodamine B)
Assay type: cell-based, human
Conditions: Homo sapiens, NCI-H460; 48 h, SRB; read-out: GI50 in indicated cell line: H460
Procedure, shortened: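 Human cancer cells (MCF-7 breast, DU145 and PC3 prostate, H460 large cell lung) were treated with compounds. Growth relative to solvent control was quantified by SRB protein stain.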

Structure (SMILES)	GI50
COc1cc(O)cc(O)c1C(=O)/C=C/c1ccc2c(c1)OCO2 [Compound I-06, (2E)-3-(1,3-Benzodioxol-5-yl)-1-(2,4-dihydroxy-6-methoxyphenyl)-2-propen-1-one]	15.6 µM
C/C(=N/Nc1ncnc2sc3c(c12)CCCC3)c1ccccc1 [II-47]	5.1 µg/mL

Tested on: DU145 cells
Assay: Cell growth inhibition bioassay (sulforhodamine B)
Assay type: cell-based, human
Conditions: Homo sapiens, DU-145; 48 h, SRB; read-out: GI50 in indicated cell line: DU145
Procedure, shortened: as §1

Structure (SMILES)	GI50
COc1cc(O)cc(O)c1C(=O)/C=C/c1ccc2c(c1)OCO2 [Compound I-06, (2E)-3-(1,3-Benzodioxol-5-yl)-1-(2,4-dihydroxy-6-methoxyphenyl)-2-propen-1-one]	12.4 µM
C/C(=N/Nc1ncnc2sc3c(c12)CCCC3)c1ccccc1 [II-47]	5.2 µg/mL

Tested on: Trypanosoma cruzi (Tulahuen C4)
Assay: In vitro anti-T. cruzi activity (β-galactosidase CPRG colorimetric assay in VERO monolayer)
Assay type: cell-based
Conditions: 10 μg/mL of each compound, 120 hours

Structure (SMILES)	T. cruzi Inhib. (%)
COc1cc(O)cc(O)c1C(=O)/C=C/c1ccc2c(c1)OCO2 [Compound I-06, (2E)-3-(1,3-Benzodioxol-5-yl)-1-(2,4-dihydroxy-6-methoxyphenyl)-2-propen-1-one]	49.61% and 69.78%

Same assay, conditions: IC50, VERO/IC50, T. cruzi; Lab B

Structure (SMILES)	Selectivity Index Lab B
C/C(=N/Nc1ncnc2sc3c(c12)CCCC3)c1ccccc1 [II-47]	0.9

Same assay, conditions: Trypanosoma cruzi, TULAHUEN, Vero, Lab A; read-out: T. cruzi IC50 Lab A

Structure (SMILES)	IC50 [µg/mL]
C/C(=N/Nc1ncnc2sc3c(c12)CCCC3)c1ccccc1 [II-47]	1.3

Same assay, conditions: Trypanosoma cruzi, TULAHUEN, Vero, Lab B; read-out: T. cruzi IC50 Lab B

Structure (SMILES)	IC50 [µg/mL]
C/C(=N/Nc1ncnc2sc3c(c12)CCCC3)c1ccccc1 [II-47]	4.4

Same assay, conditions: Trypanosoma cruzi, TULAHUEN, Vero, Table 2; read-out: IC50 - T. cruzi

Structure (SMILES)	IC50 [µg/mL]
COc1cc(O)cc(O)c1C(=O)/C=C/c1ccc2c(c1)OCO2 [Compound I-06, (2E)-3-(1,3-Benzodioxol-5-yl)-1-(2,4-dihydroxy-6-methoxyphenyl)-2-propen-1-one]	2.97

Same assay, conditions: Trypanosoma cruzi, TULAHUEN, Vero, Table 3; read-out: IC50 T. cruzi

Structure (SMILES)	IC50 [µM]
COc1cc(O)cc(O)c1C(=O)/C=C/c1ccc2c(c1)OCO2 [Compound I-06, (2E)-3-(1,3-Benzodioxol-5-yl)-1-(2,4-dihydroxy-6-methoxyphenyl)-2-propen-1-one]	9.4

Tested on: VERO cells
Assay: Cell growth inhibition bioassay (sulforhodamine B)
Assay type: cell-based, African Green Monkey
Conditions: Chlorocebus sabaeus, Vero; 48 h, SRB; read-out: GI50 in indicated cell line: VERO
Procedure, shortened: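 Cytotoxicity is read by sulforhodamine B colorimetry following the Skehan protocol; values are growth inhibition relative to solvent-only wells.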

Structure (SMILES)	GI50 [µg/mL]
C/C(=N/Nc1ncnc2sc3c(c12)CCCC3)c1ccccc1 [II-47]	9.3 (≈ 28.8 µM)

Tested on: L. amazonensis Lma CL1
Assay: Activity against macrophages infected with Leishmania amastigotes
Conditions: Leishmania amazonensis, Macrophage, 48 h, read-out: IC50 L. amazonensis Lma CL1
Description: as §2, §3, §4, §5

Structure (SMILES)	IC50 [µM]
COc1cc(O)cc(O)c1C(=O)/C=C/c1ccc2c(c1)OCO2 [Compound I-06, (2E)-3-(1,3-Benzodioxol-5-yl)-1-(2,4-dihydroxy-6-methoxyphenyl)-2-propen-1-one]	16.6

Tested on: PC3 cells
Assay: Cell growth inhibition bioassay (sulforhodamine B)
Assay type: cell-based
Conditions: Homo sapiens, PC-3; 48 h, SRB; read-out: GI50 in indicated cell line: PC3
Description: The cytotoxicity of compounds was assayed as follows. […] Appropriate solvent controls were tested for comparison. The percent inhibition of cell growth relative to the control was evaluated colorimetrically using a sulforhodamine B dye by comparison to the control. The calorimetric procedure followed that published in Skehan et al., J. Nat. Cancer Inst., […], pp. 1107-1112 (1990) and Boyd & Paull, Drug Dev. Res., Vol. 34, pp. 91-109 (1995). […] The cell lines are: 3T3 cells are BALB/3T3 clone A31 embryonic mouse fibroblast cells; H460 cells are human large cell lung cancer cells; DU145 cells are human prostate carcinoma cells; MCF-7 cells are human breast adenocarcinoma cells; M-14 cells are human melanoma cells; HT-29 cells are human colon adenocarcinoma cells; PC3 cells are human prostate adenocarcinoma cells; K562 cells are human chronic myelogenous leukemia cells; and VERO cells are African Green Monkey kidney epithelial cells.

Structure (SMILES)	GI50 [µM]
COc1cc(O)cc(O)c1C(=O)/C=C/c1ccc2c(c1)OCO2 [Compound I-06, (2E)-3-(1,3-Benzodioxol-5-yl)-1-(2,4-dihydroxy-6-methoxyphenyl)-2-propen-1-one]	18.5

Tested on: 3T3 cells
Assay: Cell growth inhibition bioassay (sulforhodamine B)
Assay type: cell-based, mouse
Conditions: Mus musculus, NIH3T3; 48 h, SRB; read-out: GI50 in indicated cell line: 3T3
Procedure, shortened: as §1

Structure (SMILES)	GI50
COc1cc(O)cc(O)c1C(=O)/C=C/c1ccc2c(c1)OCO2 [Compound I-06, (2E)-3-(1,3-Benzodioxol-5-yl)-1-(2,4-dihydroxy-6-methoxyphenyl)-2-propen-1-one]	5.1 µM
C/C(=N/Nc1ncnc2sc3c(c12)CCCC3)c1ccccc1 [II-47]	1.7 µg/mL

Tested on: M. tuberculosis H37Rv
Assay: Conventional aerobic (MABA) culture assay, luminescence MIC
Assay type: cell-based, Mycobacterium tuberculosis
Conditions: Mycobacterium tuberculosis, 168 h; aerobic, 7 days, H37Rv

Structure (SMILES)	MIC [µg/mL]
C/C(=N/Nc1ncnc2sc3c(c12)CCCC3)c1ccccc1 [II-47]	23.4 (≈ 72.6 µM)

Same assay, conditions: VERO vs MABA MIC

Structure (SMILES)	Selectivity Index H37Rv
C/C(=N/Nc1ncnc2sc3c(c12)CCCC3)c1ccccc1 [II-47]	1.4

Tested on: axenic amastigotes of L. amazonensis (strain MHOM/BR/76/LTB-012)
Assay: microbe, parasite or virus in culture
Conditions: Leishmania amazonensis, 72 h, read-out: IC50 L. amazonensis

Structure (SMILES)	IC50 [µM]
COc1cc(O)cc(O)c1C(=O)/C=C/c1ccc2c(c1)OCO2 [Compound I-06, (2E)-3-(1,3-Benzodioxol-5-yl)-1-(2,4-dihydroxy-6-methoxyphenyl)-2-propen-1-one]	4.1

Same assay, conditions: Leishmania amazonensis, read-out: L. amazonensis IC50

Structure (SMILES)	IC50 [µM]
C/C(=N/Nc1ncnc2sc3c(c12)CCCC3)c1ccccc1 [II-47]	9.2

Tested on: not listed separately
Assay: Cytotoxicity VERO cell (Table 6)
Conditions: African green monkey, VERO cells

Structure (SMILES)	IC50 [µg/mL]
C/C(=N/Nc1ncnc2sc3c(c12)CCCC3)c1ccccc1 [II-47]	32.3 (≈ 100 µM)
